Reference: PubChem BioAssay (NCI)
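Method: 48-hour compound exposure of cells in 96-well plates, five concentrations, linear interpolation of endpoints. Definition used: TGI = concentration required for complete inhibition of growth.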

Tested on: P388/ADR leukemia
Assay: NCI tumour cell line growth inhibition, 48 h

Work on `CC1[C@@H]2CC=C3[C@H]4CCC5Cc6nc7c(nc6C[C@@]5(C)C4CC(=O)[C@]32CO[C@]12OC(C)(C)CC2O)CC1CC[C@@H]2C3=C[C@H]4O[C@@]5(O[C@@](C)(CO)C[C@@H]5O)C(C)[C@@]4(O)[C@]3(C)[C@@H](O)CC2[C@]1(C)C7` (stereo partly specified) yielded a TGI of 10.9 nM.
